From patent US11634479B2, “Immunoassay for collagen type VI” (Nordic Bioscience A/S, priority 2015, dated 2023)

Key:
[1] = BALLETS phase III clinical study: adverse event profile in subgroups of baseline endotrophin; format: in vivo, subjects with type 2 diabetes on stable insulin therapy
Description: Testing Strategies) study was a phase III, randomized, double-blind, parallel-group, placebo and active comparator-controlled clinical study to determine the efficacy and safety of six months' treatment of balaglitazone or pioglitazone in subjects with type 2 diabetes on stable insulin therapy. The baseline demographics, CONSORT diagram as well as efficacy and safety data have previously been published (Henriksen, 2011). In the current study we used the per protocol population of the BALLETS study, which consisted of 299 subjects spread evenly over four groups (placebo, two doses of balaglitazone, and one dose of piogliatazone) as previously described (Henriksen, 2011), all with baseline and up to six follow-up parameters related to blood sugar control and Pro-C6 determinations under therapy.
The analysis included subjects from the per protocol population having a baseline measurement of serum Pro-C6. Subjects were grouped into one of three tertiles based on their baseline Pro-C6 value. Tertile 1 included subjects with baseline serum Pro-C6 of 6.2 ng/mL or below; tertile 2 had baseline serum Pro-C6 of 6.3 ng/mL to 7.7 ng/mL, and tertile 3 had baseline serum Pro-C6 of 7.8 ng/mL or above. Baseline characteristics between the three subgroups were compared by analysis of variance (ANOVA), and comparison of the proportion of genders in each tertile was compared by Fisher's exact test.
Lower leg edema, when measured as volume increase due to water displacement, was correlated with baseline serum endotrophin tertiles. Glitazone therapy led to increased lower leg volume in the lower and middle tertile, while there were no differences between treatment and placebo groups in the upper tertile (FIG. 12A-12C). There were no significant differences in the occurrence of AEs or SAEs in the three different treatment groups when stratified according to endotrophin levels. The difference between the SAEs in Table 10 and the lower leg oedema reported in FIGS. 12A-12C is a function of the lower leg volume being a quantitative measure and the reporting of oedemas being a patient reported output (FIGS. 10A-10C).

[2] = tested on: around 10 kD bands in human serum and amniotic fluid; experiment: Western blot of human serum and amniotic fluid; format: binding; settings: FIG. 2B
Sequence of around 10 kD bands in human serum and amniotic fluid (P12111 3112-3177 limits assumed): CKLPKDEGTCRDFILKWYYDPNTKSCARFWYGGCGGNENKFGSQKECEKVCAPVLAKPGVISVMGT
Experimental: Native reactivity of the chosen antibody was assessed using human serum pool and human amniotic fluid pool.

[3] = Tertile 1 baseline endotrophin, Balaglitazone 10 mg, n = 27
[4] = Tertile 1 baseline endotrophin, Balaglitazone 20 mg, n = 22
[5] = Tertile 2 baseline endotrophin, Balaglitazone 10 mg, n = 21
[6] = Tertile 2 baseline endotrophin, Balaglitazone 20 mg, n = 21
[7] = Tertile 3 baseline endotrophin, Balaglitazone 10 mg, n = 25
[8] = Tertile 3 baseline endotrophin, Balaglitazone 20 mg, n = 25
[9] = Tertile 1 baseline endotrophin, Pioglitazone 45 mg, n = 24
[10] = Tertile 2 baseline endotrophin, Pioglitazone 45 mg, n = 29
[11] = Tertile 3 baseline endotrophin, Pioglitazone 45 mg, n = 31

## Cn1c(COc2ccc(CC3SC(=O)NC3=O)cc2)nc2ccccc2c1=O (stereo not drawn) [Balaglitazone, balaglitazone]
[1]; [3]
  All AEs, E: 38
  All AEs, N (%): 20 (74%) N (%)
  Serious AEs, E: 1
  Serious AEs, N (%): 1 (4%) N (%)
  Severe AEs: Cardiac ischaemia, E: 0
  Severe AEs: Cardiac ischaemia, N (%): 0 (0%) N (%)
  Severe AEs: Heart failure, E: 0
  Severe AEs: Heart failure, N (%): 0 (0%) N (%)
  Severe AEs: Peripheral oedema, E: 2
  Severe AEs: Peripheral oedema, N (%): 2 (7%) N (%)
  Total severe AEs, E: 2
  Total severe AEs, N (%): 2 (7%) N (%)
[1]; [4]
  All AEs, E: 33
  All AEs, N (%): 17 (77%) N (%)
  Serious AEs, E: 1
  Serious AEs, N (%): 1 (5%) N (%)
  Severe AEs: Cardiac ischaemia, E: 2
  Severe AEs: Cardiac ischaemia, N (%): 2 (9%) N (%)
  Severe AEs: Heart failure, E: 0
  Severe AEs: Heart failure, N (%): 0 (0%) N (%)
  Severe AEs: Peripheral oedema, E: 2
  Severe AEs: Peripheral oedema, N (%): 2 (9%) N (%)
  Total severe AEs, E: 4
  Total severe AEs, N (%): 4 (18%) N (%)
[1]; [5]
  All AEs, E: 35
  All AEs, N (%): 17 (81%) N (%)
  Serious AEs, E: 1
  Serious AEs, N (%): 1 (5%) N (%)
  Severe AEs: Cardiac ischaemia, E: 1
  Severe AEs: Cardiac ischaemia, N (%): 1 (5%) N (%)
  Severe AEs: Heart failure, E: 0
  Severe AEs: Heart failure, N (%): 0 (0%) N (%)
  Severe AEs: Peripheral oedema, E: 3
  Severe AEs: Peripheral oedema, N (%): 3 (14%) N (%)
  Total severe AEs, E: 4
  Total severe AEs, N (%): 4 (19%) N (%)
[1]; [6]
  All AEs, E: 36
  All AEs, N (%): 15 (71%) N (%)
  Serious AEs, E: 0
  Serious AEs, N (%): 0 (0%) N (%)
  Severe AEs: Cardiac ischaemia, E: 0
  Severe AEs: Cardiac ischaemia, N (%): 0 (0%) N (%)
  Severe AEs: Heart failure, E: 0
  Severe AEs: Heart failure, N (%): 0 (0%) N (%)
  Severe AEs: Peripheral oedema, E: 2
  Severe AEs: Peripheral oedema, N (%): 2 (10%) N (%)
  Total severe AEs, E: 2
  Total severe AEs, N (%): 2 (10%) N (%)
[1]; [7]
  All AEs, E: 55
  All AEs, N (%): 20 (60%) N (%)
  Serious AEs, E: 1
  Serious AEs, N (%): 1 (4%) N (%)
  Severe AEs: Cardiac ischaemia, E: 0
  Severe AEs: Cardiac ischaemia, N (%): 0 (0%) N (%)
  Severe AEs: Heart failure, E: 0
  Severe AEs: Heart failure, N (%): 0 (0%) N (%)
  Severe AEs: Peripheral oedema, E: 1
  Severe AEs: Peripheral oedema, N (%): 1 (8%) N (%)
  Total severe AEs, E: 1
  Total severe AEs, N (%): 1 (8%) N (%)
[1]; [8]
  All AEs, E: 43
  All AEs, N (%): 20 (60%) N (%)
  Serious AEs, E: 6
  Serious AEs, N (%): 6 (24%) N (%)
  Severe AEs: Cardiac ischaemia, E: 1
  Severe AEs: Cardiac ischaemia, N (%): 1 (4%) N (%)
  Severe AEs: Heart failure, E: 0
  Severe AEs: Heart failure, N (%): 0 (0%) N (%)
  Severe AEs: Peripheral oedema, E: 1
  Severe AEs: Peripheral oedema, N (%): 1 (4%) N (%)
  Total severe AEs, E: 2
  Total severe AEs, N (%): 2 (8%) N (%)

## CCc1ccc(CCOc2ccc(CC3SC(=O)NC3=O)cc2)nc1 (stereo not drawn) [Pioglitazone, pioglitazone]
[1]; [9]
  All AEs, E: 45
  All AEs, N (%): 19 (79%) N (%)
  Serious AEs, E: 1
  Serious AEs, N (%): 1 (4%) N (%)
  Severe AEs: Cardiac ischaemia, E: 0
  Severe AEs: Cardiac ischaemia, N (%): 0 (0%) N (%)
  Severe AEs: Heart failure, E: 0
  Severe AEs: Heart failure, N (%): 0 (0%) N (%)
  Severe AEs: Peripheral oedema, E: 5
  Severe AEs: Peripheral oedema, N (%): 5 (21%) N (%)
  Total severe AEs, E: 5
  Total severe AEs, N (%): 5 (21%) N (%)
[1]; [10]
  All AEs, N (%): 17 (59%)^ N (%)
  Serious AEs, E: 3
  Serious AEs, N (%): 2 (6%) N (%)
  Severe AEs: Cardiac ischaemia, E: 1
  Severe AEs: Cardiac ischaemia, N (%): 1 (3%) N (%)
  Severe AEs: Heart failure, E: 0
  Severe AEs: Heart failure, N (%): 0 (0%) N (%)
  Severe AEs: Peripheral oedema, E: 5
  Severe AEs: Peripheral oedema, N (%): 5 (17%) N (%)
  Total severe AEs, E: 6
  Total severe AEs, N (%): 5 (17%) N (%)
[1]; [11]
  All AEs, N (%): 25 (81%)^ N (%)
  Serious AEs, E: 6
  Serious AEs, N (%): 4 (13%) N (%)
  Severe AEs: Cardiac ischaemia, E: 4
  Severe AEs: Cardiac ischaemia, N (%): 3 (10%) N (%)
  Severe AEs: Heart failure, E: 1
  Severe AEs: Heart failure, N (%): 1 (3%) N (%)
  Severe AEs: Peripheral oedema, E: 2
  Severe AEs: Peripheral oedema, N (%): 2 (6%) N (%)
  Total severe AEs, E: 7
  Total severe AEs, N (%): 6 (19%) N (%)

B1: 10A3: mouse IgG1/kappa monoclonal antibody against the last 10 amino acids of C-terminal COL6A3 (…); heavy chain SEQ ID NO:5, light chain SEQ ID NO:9 (antibody)
heavy: EVQLQQSGPVMVKPGTSVKTSCKASGYTFTDFNMNWVKQSHGKSLEWIGAINPHNGATSYNQKFSGKATLTVDKSSSTAYMELNSLTSDDSAVYYCARWGNGKNSWGQGTTLTVSSAKTTPPSVYPLAPGSAAQTNSMVTLGCLVKGYFPEPVTVTWNSGSLSSGVHTFPAVLQSDLYTLSSSVTVPSSTWPSETVTCNVAHPASSTKVDKKIVPRDCGCKPCICTVPEVSSVFIFPPKPKDVLTITLTPKVTCVVVDISKDDPEVQFSWFVDDVEVHTAQTQPREEQFNSTFRSVSELPIMHQDWLNGKEFKCRVNSAAFPAPIEKTISKTKGRPKAPQVYTIPPPKEQMAKDKVSLTCMITDFFPEDITVEWQWNGQPAENYKNTQPIMDTDGSYFVYSKLNVQKSNWEAGNTFTCSVLHEGLHNHHTEKSLSHSPGK
light: DVVMTQTPLSLPVNLGDQASISCRSSQRIVHSNGITFLEWYLQKPGQSPKLLIYRVSNRFSGVPDRFSGSGSGTDFTLKISRVEAEDLGLYYCFQGSHVPLTFGAGTRLELKRADAAPTVSIFPPSSEQLTSGGASVVCFLNNFYPKDINVKWKIDGSERQNGVLNSWTDQDSKDSTYSMSSTLTLTKDEYERHNSYTCEATHKTSTSPIVKSFNRNEC
modifications: Heavy chain sequence of mouse IgG1 isotype of monoclonal antibody 10A3; Light chain sequence of mouse Kappa isotype of monoclonal antibody 10A3
[2]
  western blot signal in the presence of the standard peptide: completely blocked
[2]; human serum and amniotic fluid
  bands recognized in western blot: around 10 kD
